Measurements as given in ChEMBL document CHEMBL4823276, “Comparative studies on the substrate specificity and defucosylation activity of three α-l-fucosidases using synthetic fucosylated glycopeptides and glycoproteins as substrates” (Bioorg Med Chem, 2021).

Legend:
Type in all cases: ADME
[1] = Substrate activity at recombinant His-tagged Lactobacillus casei alpha L-fucosidase expressed in Escherichia coli […] assessed as formation of p-nitrophenyl products at 5 mM measured by UV spectrometer assay; settings: lacticaseibacillus casei, 5000 µM
[2] = Substrate activity at recombinant His-tagged Bacteroides fragilis alpha L-fucosidase expressed in Escherichia coli BL21(DE3) assessed as formation of p-nitrophenyl products at 5 mM measured by UV spectrometer assay; settings: 5000 µM
[3] = Substrate activity at recombinant His-tagged Bacteroides fragilis alpha L-fucosidase expressed in Escherichia coli BL21(DE3) assessed as de-fucosylation of N-glycan at 5 mg/ml measured after 21 hrs by LC/MS analysis
[4] = Substrate activity at recombinant His-tagged Lactobacillus casei alpha L-fucosidase expressed in Escherichia coli […] assessed as de-fucosylation of N-glycan at 5 mg/ml measured after 21 hrs by LC/MS analysis; settings: lacticaseibacillus casei

In the case of `C[C@@H]1O[C@@H](Oc2ccc([N+](=O)[O-])cc2)[C@@H](O)[C@H](O)[C@@H]1O`, the Activity [1] is reported as “Not Active” and the Activity [2] is reported as “Active”.

For `CC(=O)N[C@@H]1[C@@H](O)[C@H](O[C@@H]2O[C@H](CO)[C@@H](O[C@@H]3O[C@H](CO[C@H]4O[C@H](CO)[C@@H](O)[C@H](O)[C@@H]4O[C@@H]4O[C@H](CO[C@@H]5O[C@H](CO[C@]6(C(=O)O)C[C@H](O)[C@@H](NC(C)=O)C([C@H](O)[C@H](O)CO)O6)[C@H](O)[C@H](O)[C@H]5O)[C@@H](O)[C@H](O)[C@H]4NC(C)=O)[C@@H](O)[C@H](O[C@H]4O[C@H](CO)[C@@H](O)[C@H](O)[C@@H]4O[C@@H]4O[C@H](CO)[C@@H](O[C@@H]5O[C@H](CO[C@]6(C(=O)O)C[C@H](O)[C@@H](NC(C)=O)C([C@H](O)[C@H](O)CO)O6)[C@H](O)[C@H](O)[C@H]5O)[C@H](O)[C@H]4NC(C)=O)[C@@H]3O)[C@H](O)[C@H]2NC(C)=O)[C@@H](CO[C@H]2O[C@H](C)[C@H](O)[C@H](O)[C@H]2O)O[C@H]1NC(=O)CNC(=O)C[C@H](NC(=O)[C@H](CCC(N)=O)NC(=O)CN)C(=O)N[C@@H](CC(=O)O)C(=O)N[C@H](C(=O)N[C@@H](CO)C(=O)N[C@@H](CCC(N)=O)C(=O)N[C@H](C(=O)N[C@@H](CO)C(=O)N[C@@H](CO)C(=O)N1CCC[C@H]1C(=O)N[C@@H](CO)C(=O)N[C@@H](CC(C)C)C(=O)N1CCC[C@H]1C(=O)N[C@@H](CCCCN)C(=O)N[C@H](C(=O)NCC(=O)NCC(=O)N[C@@H](CO)C(=O)O)[C@@H](C)O)[C@@H](C)O)[C@@H](C)O` (some centres undefined), the Activity [3] was “Not Active” and the Activity [4] was “Not Active”.
